Active and inactive are the calls of the source. The calls are words filed in the database; no cut-off is given here.

This passage reports IC50 and inhibition results from ChEMBL document CHEMBL1149090, “Synthesis of a potent transition-state inhibitor of 5'-deoxy-5'-methylthioadenosine phosphorylase” (J Med Chem, 2004).

Assay [1] deals with MOLT-4. Briefly: Tested for inhibition of MOLT-4 cells proliferation in the presence of 3 uM MTA. Conditions: Homo sapiens. It counts as functional, cell-based.
Assay [2] addresses T1, S-methyl-5'-thioadenosine phosphorylase (Homo sapiens, UniProt Q13126).
T1 sequence (Q13126 whole entry): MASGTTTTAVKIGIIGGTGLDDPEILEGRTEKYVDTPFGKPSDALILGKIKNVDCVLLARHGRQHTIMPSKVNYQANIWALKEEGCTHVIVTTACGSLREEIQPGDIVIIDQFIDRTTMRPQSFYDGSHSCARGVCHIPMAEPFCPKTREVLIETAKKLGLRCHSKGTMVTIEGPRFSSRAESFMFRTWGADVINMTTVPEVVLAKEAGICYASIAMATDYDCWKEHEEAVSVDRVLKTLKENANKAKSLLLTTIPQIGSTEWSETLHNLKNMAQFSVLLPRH
Briefly: Inhibitory concentration against Methylthioadenosine phosphorylase.

Assay [3] has as its system MOLT-4. The assay can be described thus: Tested for inhibition of MOLT-4 cells proliferation in the presence of 100 nM methotrexate and 10 uM of the compound; not significant. Conditions: Homo sapiens. The class given is functional, cell-based.
In assay [4] the test system is MOLT-4. The assay can be described thus: Tested for inhibition of MOLT-4 cells proliferation up to 10 uM; No Inhibition. The class given is functional, cell-based. Conditions: Homo sapiens.

Usually IC50 stands for the point on the concentration scale where inhibition reaches its midpoint. Consider `CSC[C@H]1N[C@@H](c2c[nH]c3c(N)ncnc23)[C@H](O)[C@@H]1O`, for which the concentration for half-maximal inhibition (IC50) was 1000 nM with MOLT-4 [1] and 1.2 nM in assay [2]. Further, the inhibition entry with MOLT-4 [3] and in the assay on MOLT-4 [4] was “inactive” throughout.
